Patent US8877938B2, “Compounds containing S-N-valeryl-N-{[2′-(1H-tetrazole-5-yl)-biphenyl-4-yl]-methyl}-valine and (2R,4S)-5-biphenyl-4-yl-4-(3-carboxy-propionylamino)-2-methyl-pentanoic acid ethyl ester moieties and cations” (Novartis Pharmaceuticals Corporation, priority 2005, dated 2014)
Read-outs that look alike come from different tables or passages of the source.

Experiments:
[1] = system: double-transgenic rats (dTGRs) that overexpress both human renin and its substrate, human angiotensinogen
Method: (§1) Representative studies are carried out with trisodium [3-((1S,3R)-1-biphenyl-4-ylmethyl-3-ethoxycarbonyl-1-butylcarbamoyl)propionate-(S)-3′-methyl-2′- pentanoyl{2″-(tetrazol-5-ylate)biphenyl-4′-ylmethyl}amino)butyrate] hemipentahydrate, e.g. applying the following methodology: • The antihypertensive and neutral endopeptidase 24.11 (NEP)-inhibitory activities of trisodium [3-((1S,3R)-1-biphenyl-4-ylmethyl-3-ethoxycarbonyl-1-butylcarbamoyl)propionate-(S)-3′-methyl-2′-(pentanoyl{2″-tetrazol-5-ylate)biphenyl-4′-ylmethyl}amino)butyrate] hemipentahydrate is assessed in conscious rats. The blood pressure-lowering effect is evaluated in double-transgenic rats (dTGRs) that overexpress both human renin and its substrate, human angiotensinogen (Bohlender, et al, High human renin hypertension in transgenic rats. Hypertension; 29(1 Pt 2):428-34, 1997). […] The NEP-inhibitory effect of trisodium [3-((1 S,3R)-1-biphenyl-4-ylmethyl-3-ethoxycarbonyl-1-butylcarbamoyl)propionate-(S)-3′-methyl-2′-(pentanoyl{2″-(tetrazol-5-ylate)biphenyl-4′-ylmethyl}amino)butyrate] hemipentahydrate is determined in conscious Sprague-Dawley rats infused with exogenous atrial natriuretic peptide (ANP). Potentiation of plasma ANP levels is used as an index of NEP inhibition in vivo. In both models, trisodium [3-((1S,3R)-1-biphenyl-4-ylmethyl-3-ethoxycarbonyl-1-butylcarbamoyl)propionate-(S)-3′-methyl-2′-(pentanoyl{2″-(tetrazol-5-ylate)biphenyl-4′-ylmethyl}amino)butyrate] hemipentahydrate is administered orally as a powder in gelatin mini capsules. […] Antihypertensive Effect In Vivo
The dTGRs are instrumented with radiotelemetry transmitters for continuous measurement of arterial blood pressure and heart rate. Animals are randomly assigned to vehicle (empty capsule) or treatment (at 2, 6, 20 or 60 mg/kg, p.o.) groups.

[2] = target: neutral endopeptidase 24.11 (NEP) (Rattus norvegicus, UniProt P07861); conditions: for NEP inhibition in vivo, as reflected by potentiation of plasma ANPir: oral administration, conscious Sprague-Dawley rats infused with exogenous ANP
Method: as §1
Rat ANP(1-28) is infused intravenously at a rate of 450 ng/kg/min in conscious, chronically cannulated, male Sprague-Dawley rats. After one hour of infusion, rats are randomly assigned to one of six groups: untreated control, vehicle (empty capsule) control, or one of four doses of drug (2, 6, 20, or 60 mg/kg, p.o.). ANP infusion is continued for an additional eight hours. Blood samples are collected for measuring plasma ANPir by a commercial enzyme immunoassay kit at −60 min (i.e., before initiating ANP infusion), −30 min (after 30 min of ANP infusion), 0 min (“baseline”; after 60 min of ANP infusion but before dosing with drug or its vehicle), and at 0.25, 0.5,1, 2, 3, 4, 5, 6, 7, and 8 hr post-dosing.

[3] = 2, 6, 20 or 60 mg/kg, p.o., rat ANP(1-28) infused i.v. at 450 ng/kg/min

Sequence of neutral endopeptidase 24.11 (NEP) (P07861 whole entry, the tested form may be a part): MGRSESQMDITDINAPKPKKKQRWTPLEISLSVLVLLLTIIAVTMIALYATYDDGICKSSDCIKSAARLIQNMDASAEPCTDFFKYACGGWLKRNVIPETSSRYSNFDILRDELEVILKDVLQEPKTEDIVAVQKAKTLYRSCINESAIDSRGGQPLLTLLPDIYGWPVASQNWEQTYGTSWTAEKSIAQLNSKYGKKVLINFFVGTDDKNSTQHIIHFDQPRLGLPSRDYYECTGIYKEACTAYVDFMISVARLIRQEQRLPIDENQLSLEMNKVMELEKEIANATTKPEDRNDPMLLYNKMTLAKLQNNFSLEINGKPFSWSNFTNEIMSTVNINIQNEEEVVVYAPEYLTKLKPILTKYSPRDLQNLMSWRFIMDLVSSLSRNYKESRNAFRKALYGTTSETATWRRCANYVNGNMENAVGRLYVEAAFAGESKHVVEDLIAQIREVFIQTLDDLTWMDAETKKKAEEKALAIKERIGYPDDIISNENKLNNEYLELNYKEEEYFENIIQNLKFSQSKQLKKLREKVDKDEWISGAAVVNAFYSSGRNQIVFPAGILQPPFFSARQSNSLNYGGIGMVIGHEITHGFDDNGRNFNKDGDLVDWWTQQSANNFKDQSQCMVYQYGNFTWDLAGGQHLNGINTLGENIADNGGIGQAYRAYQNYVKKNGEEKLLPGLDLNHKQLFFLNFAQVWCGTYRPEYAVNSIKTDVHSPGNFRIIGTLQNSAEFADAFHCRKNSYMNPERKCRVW

Substance: trisodium [3-((1S,3R)-1-biphenyl-4-ylmethyl-3-ethoxycarbonyl-1-butylcarbamoyl)propionate-(S)-3′-methyl-2′-(pentanoyl{2″-(tetrazol-5-ylate)biphenyl-4′-ylmethyl}amino)butyrate] hemipentahydrate
- mean arterial pressure (MAP) ([1]; 2, 6, 20 or 60 mg/kg, p.o., baseline 24-hr MAP approximately 170-180 mmHg): dose-dependently reduces MAP
- antihypertensive effect ([1]; oral administration, conscious dTGRs, a rat model of fulminant hypertension): dose-dependent and long-lasting antihypertensive effect
- MAP, difference from vehicle controls ([1]; three highest doses (of 2, 6, 20, 60 mg/kg, p.o.)): significantly different from the vehicle controls
- plasma ANPir [2, 3]: dose-dependently augments ANPir
- time to augmentation of plasma ANPir after dosing [2, 3]: ≤ 15 min
- NEP inhibition in vivo, as reflected by potentiation of plasma ANPir [2]: rapidly and dose-dependently inhibits NEP with a long duration of action
- NEP inhibition in vivo, as reflected by potentiation of plasma ANPir ([2]; listed as LCZ696): rapidly and dose-dependently inhibited NEP with a long duration of action
